Source: US8680108B2, “Substituted fused aryl and heteroaryl derivatives as PI3K inhibitors” (Incyte Corporation, priority 2009, dated 2014)
Counter-ions that a name gives are not always drawn.

Biological target: T1, PI3Kδ (p110δ/p85α) (Homo sapiens, UniProt O00329)
T1 construct: purchased Millipore (Bedford, Mass.)
Assay: PI3Kδ scintillation proximity assay
Type: biochemical
Conditions: not given
Excerpt: Materials: [γ-^33P]ATP (10 mCi/mL) was purchased from Perkin-Elmer (Waltham, Mass.). Lipid kinase substrate, D-myo-Phosphatidylinositol 4,5-bisphosphate (PtdIns(4,5)P2)D (+)-sn-1,2-di-O-octanoylglyceryl, 3-O-phospho linked (PIP2), CAS 204858-53-7, was purchased from Echelon Biosciences (Salt Lake City, Utah). PI3Kδ (p110δ/p85α) was purchased from Millipore (Bedford, Mass.). ATP, MgCl2, DTT, EDTA, MOPS and CHAPS were purchased from Sigma-Aldrich (St. Louis, Mo.). Wheat Germ Agglutinin (WGA) YSi SPA Scintillation Beads was purchased from GE healthcare life sciences (Piscataway, N.J.).
Assay: The kinase reaction was conducted in polystyrene 384-well matrix white plate from Thermo Fisher Scientific in a final volume of 25 μL. Inhibitors were first diluted serially in DMSO and added to the plate wells before the addition of other reaction components. The final concentration of DMSO in the assay was 0.5%. The PI3K assays were carried out at room temperature in 20 mM MOPS, pH 6.7, 10 mM MgCl2, 5 mM DTT and CHAPS 0.03%. Reactions were initiated by the addition of ATP, the final reaction mixture consisted of 20 μM PIP2, 20 μM ATP, 0.2 μCi [γ-^33P] ATP, 4 nM PI3Kδ. Reactions were incubated for 210 minutes and terminated by the addition of 40 μL SPA beads suspended in quench buffer: 150 mM potassium phosphate pH 8.0, 20% glycerol. 25 mM EDTA, 400 μM ATP. The final concentration of SPA beads is 1.0 mg/mL. After the plate sealing, plates were shaken overnight at room temperature and centrifuged at 1800 rpm for 10 minutes, the radioactivity of the product was determined by scintillation counting on Topcount (Perkin-Elmer). IC50 determination was performed by fitting the curve of percent control activity versus the log of the inhibitor concentration using the GraphPad Prism® 3.0 software.

T1 sequence (O00329 whole entry): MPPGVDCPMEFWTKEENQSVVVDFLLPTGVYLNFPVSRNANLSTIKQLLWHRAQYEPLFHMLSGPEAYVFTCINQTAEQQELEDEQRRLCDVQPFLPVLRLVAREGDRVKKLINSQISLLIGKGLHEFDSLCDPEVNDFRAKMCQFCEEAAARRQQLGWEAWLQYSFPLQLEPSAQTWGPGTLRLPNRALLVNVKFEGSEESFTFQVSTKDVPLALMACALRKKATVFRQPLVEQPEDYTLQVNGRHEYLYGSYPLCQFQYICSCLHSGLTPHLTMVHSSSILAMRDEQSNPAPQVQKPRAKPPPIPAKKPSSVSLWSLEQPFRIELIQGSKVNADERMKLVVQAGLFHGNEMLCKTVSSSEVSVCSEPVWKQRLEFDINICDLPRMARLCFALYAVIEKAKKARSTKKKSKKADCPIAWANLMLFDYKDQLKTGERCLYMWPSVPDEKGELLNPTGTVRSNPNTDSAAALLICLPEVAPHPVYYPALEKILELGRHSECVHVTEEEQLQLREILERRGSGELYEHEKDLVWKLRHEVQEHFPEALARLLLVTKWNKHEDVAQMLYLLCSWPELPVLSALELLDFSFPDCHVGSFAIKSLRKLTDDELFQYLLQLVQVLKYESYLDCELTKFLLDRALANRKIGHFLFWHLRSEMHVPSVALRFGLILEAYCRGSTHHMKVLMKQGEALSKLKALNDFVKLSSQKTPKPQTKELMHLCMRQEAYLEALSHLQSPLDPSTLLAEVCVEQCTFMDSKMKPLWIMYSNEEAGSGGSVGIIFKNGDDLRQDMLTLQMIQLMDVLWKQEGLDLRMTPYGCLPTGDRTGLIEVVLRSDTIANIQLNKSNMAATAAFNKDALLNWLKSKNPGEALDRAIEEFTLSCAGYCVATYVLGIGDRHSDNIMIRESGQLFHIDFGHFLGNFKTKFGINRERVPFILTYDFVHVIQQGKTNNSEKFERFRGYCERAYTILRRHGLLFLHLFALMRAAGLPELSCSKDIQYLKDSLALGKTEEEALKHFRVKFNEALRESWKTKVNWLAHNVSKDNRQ
T1 sequence (P27986 whole entry partner): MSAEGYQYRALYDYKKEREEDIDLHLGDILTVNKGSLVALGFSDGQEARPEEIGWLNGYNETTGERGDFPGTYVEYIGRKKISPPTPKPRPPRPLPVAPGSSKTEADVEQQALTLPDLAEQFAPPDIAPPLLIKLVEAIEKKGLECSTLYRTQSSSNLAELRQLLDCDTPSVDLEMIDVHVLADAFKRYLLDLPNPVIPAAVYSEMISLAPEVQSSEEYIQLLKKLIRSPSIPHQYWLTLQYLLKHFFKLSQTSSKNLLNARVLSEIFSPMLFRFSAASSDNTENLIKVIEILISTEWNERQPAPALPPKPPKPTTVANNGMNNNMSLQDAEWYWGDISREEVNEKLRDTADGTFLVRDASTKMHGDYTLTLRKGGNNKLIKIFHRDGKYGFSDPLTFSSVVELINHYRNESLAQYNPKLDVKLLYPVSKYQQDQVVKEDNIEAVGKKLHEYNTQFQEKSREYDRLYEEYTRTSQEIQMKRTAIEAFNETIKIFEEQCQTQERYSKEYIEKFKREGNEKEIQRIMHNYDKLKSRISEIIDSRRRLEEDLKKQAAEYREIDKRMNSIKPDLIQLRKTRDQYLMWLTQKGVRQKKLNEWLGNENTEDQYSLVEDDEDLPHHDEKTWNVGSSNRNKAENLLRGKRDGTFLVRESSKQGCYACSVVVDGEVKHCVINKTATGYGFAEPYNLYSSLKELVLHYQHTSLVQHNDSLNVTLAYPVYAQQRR

IC50 | SMILES
> 1000 nM | CC(Nc1ncnc2[nH]cnc12)c1cc(Cl)c2cccnc2c1N1CCC(c2ccccc2)CC1 (stereo not shown) [Example 72, N-{1-[5-Chloro-8-(4-phenylpiperidin-1-yl)quinolin-7-yl]ethyl}-9H-purin-6-amine bis(trifluoroacetate)]
100 to 250 nM | CC(Nc1ncnc2[nH]cnc12)c1cc(Cl)c2cccnc2c1N1CCN(C(=O)c2cccc(F)c2)CC1 (stereo not shown) [Example 92, N-(1-{5-Chloro-8-[4-(3-fluorobenzoyl)piperazin-1-yl]quinolin-7-yl}ethyl)-9H-purin-6-amine bis(trifluoroacetate)]
50 to 100 nM | CC(Nc1ncnc2[nH]cnc12)c1cc(Cl)c2cccnc2c1N1CCN(C2CCCCC2)CC1 (stereo not shown) [Example 65, N-{1-[5-Chloro-8-(4-cyclohexylpiperazin-1-yl)quinolin-7-yl]ethyl}-9H-purin-6-amine tris(trifluoroacetate)]
> 1000 nM | CC(Nc1ncnc2[nH]cnc12)c1cc(Cl)c2cccnc2c1N1CCC(O)(c2ccccc2)CC1 (stereo not shown) [Example 49, 1-{5-Chloro-7-[1-(9H-purin-6-ylamino)ethyl]quinolin-8-yl}-4-phenylpiperidin-4-ol]
< 50 nM | COC(=O)NC1CCN(c2c(C(C)Nc3ncnc4[nH]cnc34)cc(Cl)c3cccnc23)CC1 (stereo not shown) [Example 83, Methyl(1-{5-Chloro-7-[1-(9H-purin-6-ylamino)ethyl]quinolin-8-yl}piperidin-4-yl)carbamate bis(trifluoroacetate)]
< 50 nM | CC(Nc1ncnc2[nH]cnc12)c1cc(F)c2cccnc2c1N1CCN(C2CCC2)CC1 (stereo not shown) [Example 55, N-{1-[8-(4-Cyclobutylpiperazin-1yl)-5-fluoroquinolin-7-yl]ethyl}-9H-purin-6-amine]
< 50 nM | CC(Nc1ncnc2[nH]cnc12)c1cc(Cl)c2ccccc2c1N1CCC(O)CC1 (stereo not shown) [Example 45, 1-{4-Chloro-2-[1-(9H-purin-6-ylamino)ethyl]-1-naphthyl}piperidin-4-ol]
> 1000 nM | CNC(=O)c1cc(F)cc(-c2c(C(C)Nc3ncnc4[nH]cnc34)cc(Cl)c3ccnnc23)c1 (stereo not shown) [Example 40, 3-{5-Chloro-7-[1-(9H-purin-6-ylamino)ethyl]cinnolin-8-yl}-5-fluoro-N-methylbenzamide]
250 to 500 nM | CC(Nc1ncnc2[nH]cnc12)c1cc(Cl)c2ccnnc2c1-c1ccccc1F (single isomer, unassigned) [Example 26, N-{1-[5-Chloro-8-(2-fluorophenyl)cinnolin-7-yl]ethyl}-9H-purin-6-amine]
< 50 nM | CC(Nc1ncnc2[nH]cnc12)c1cc(Cl)c2cccnc2c1N1CCN(C(=O)C2CC2)CC1 (stereo not shown) [Example 84, N-(1-{5-Chloro-8-[4-(cyclopropylcarbonyl)piperazin-1-yl]quinolin-7-yl}ethyl)-9H-purin-6-amine bis(trifluoroacetate)]
< 50 nM | CC(Nc1ncnc2[nH]cnc12)c1cc(Cl)c2cccnc2c1-c1cccc(F)c1 (stereo not shown) [Example 15, N-{1-[5-chloro-8-(3-fluorophenyl)quinolin-7-yl]ethyl}-9H-purin-6-amine bis-trifluoroacetate]
50 to 100 nM | CC(Nc1ncnc2[nH]cnc12)c1cc(Cl)c2cccnc2c1N1CCN(C(=O)c2ccccc2)CC1 (stereo not shown) [Example 89, N-(1-[8-(4-Benzoylpiperazin-1-yl)-5-chloroquinolin-7-yl]ethyl}-9H-purin-6-amine bis(trifluoroacetate)]
< 50 nM | CC(Nc1ncnc2[nH]cnc12)c1cc(Cl)c2cccnc2c1N1CCN(C(=O)c2cccnc2)CC1 (stereo not shown) [Example 96, N-(1-{5-Chloro-8-[4-(pyridin-3-ylcarbonyl)piperazin-1-yl]quinolin-7-yl}ethyl)-9H-purin-6-amine tris(trifluoroacetate)]

Further lines, the molecule ahead of its results:

SMILES | IC50
CC(Nc1ncnc2[nH]cnc12)c1ccc2ccccc2c1-c1cccc(F)c1 (stereo not shown) [Example 1, N-{1-[1-(3-fluorophenyl)-2-naphthyl]ethyl}-9H-purin-6-amine trifluoroacetate] | 100 to 250 nM
CC(Nc1ncnc2[nH]cnc12)c1cc(F)c2ccnnc2c1-c1cccc(F)c1 (single isomer, unassigned) [Example 20, N-{1-[5-Fluoro-8-(3-fluorophenyl)cinnolin-7-yl]ethyl}-9H-purin-6-amine] | < 50 nM
CCC(Nc1ncnc2[nH]cnc12)c1cc(Cl)c2ccnnc2c1-c1cccc(F)c1 (single isomer, unassigned) [Example 33, N-{1-[5-chloro-8-(3-fluorophenyl)cinnolin-7-yl]propyl}-9H-purin-6-amine] | < 50 nM
CC(Nc1ncnc2[nH]cnc12)c1nc(C#N)c2ccccc2c1-c1cccc(F)c1 (stereo not shown) [Example 54, 4-(3-fluorophenyl)-3-[1-(9H-purin-6-ylamino)ethyl]isoquinoline-1-carbonitrile] | 50 to 100 nM
Cc1nc2c(-c3cccc(F)c3)c(C(C)Nc3ncnc4[nH]cnc34)ccc2s1 (stereo not shown) [Example 2, N-{1-[4-(3-fluorophenyl)-2-methyl-1,3-benzothiazol-5-yl]ethyl}-9H-purin-6-amine trifluoroacetate] | > 1000 nM
CC(Nc1ncnc2[nH]cnc12)c1cc(Cl)c2ccnnc2c1-c1ccnc(F)c1 (stereo not shown) [Example 42, N-{1-[5-Chloro-8-(2-fluoropyridin-4-yl)cinnolin-7-yl]ethyl}-9H-purin-6-amine] | 500 to 1000 nM
CCc1cc(C(C)Nc2ncnc3[nH]cnc23)c(-c2cccc(F)c2)c2ncccc12 (stereo not shown) [Example 51, N-{1-[5-Ethyl-8-(3-fluorophenyl)quinolin-7-yl]ethyl}-9H-purin-6-amine bis(trifluoroacetate)] | 50 to 100 nM
Cc1cc(C(C)Nc2ncnc3[nH]cnc23)c(-c2cc(F)cc(F)c2)c2nnccc12 (single isomer, unassigned) [Example 39, N-{1-[8-(3,5-difluorophenyl)-5-methylcinnolin-7-yl]ethyl}-9H-purin-6-amine] | > 1000 nM
CC(Nc1ncnc2[nH]cnc12)c1cc(Cl)c2ccnnc2c1-c1cncc(F)c1 (single isomer, unassigned) [Example 34, N-{1-[5-chloro-8-(5-fluoropyridin-3-yl)cinnolin-7-yl]ethyl}-9H-purin-6-amine trifluoroacetate] | 50 to 100 nM
CC(Nc1ncnc2[nH]cnc12)c1cc(Cl)c2ccccc2c1-c1cccc(F)c1 (stereo not shown) [Example 46, N-{1-[4-Chloro-1-(3-fluorophenyl)-2-naphthyl]ethyl}-9H-purin-6-amine] | 100 to 250 nM

Same assay, conditions: separated isomer, 1st peak

IC50 | SMILES
> 1000 nM | CCC(=O)N[C@H]1CCN(c2c(C(C)Nc3ncnc4[nH]cnc34)cc(Cl)c3cccnc23)C1 (stereo partly drawn) [Example 77, N-((3S)-1-{5-Chloro-7-[1-(9H-purin-6-ylamino)ethyl]quinolin-8-yl}pyrrolidin-3-yl)propanamide tris(trifluoroacetate)]
250 to 500 nM | CC(Nc1ncnc2[nH]cnc12)c1cc(Cl)c2cccnc2c1N1CCC(c2ccccc2)C1 (stereo not shown) [Example 76, N-{1-[5-Chloro-8-(3-phenylpyrrolidin-1-yl)quinolin-7-yl]ethyl}-9H-purin-6-amine tris(trifluoroacetate)]

The next lines start with the molecule.

SMILES | IC50
CC(Nc1nc(N)nc2[nH]cnc12)c1ccc2ccccc2c1-c1cccc(F)c1 (stereo not shown) [Example 4, N(6)-{1-[1-(3-fluorophenyl)-2-napthyl]ethyl}-9H-purine-2,6-diamine] | 500 to 1000 nM
CC(Nc1ncnc2[nH]cnc12)c1ccc2cccnc2c1-c1ccccc1F (stereo not shown) [Example 7, N-{1-[8-(2-fluorophenyl)quinolin-7-yl]ethyl}-9H-purin-6-amine bis-trifluoroacetate] | > 1000 nM

Same assay, conditions: separated isomer, 2nd peak

IC50 | SMILES
< 50 nM | CCC(=O)N[C@H]1CCN(c2c(C(C)Nc3ncnc4[nH]cnc34)cc(Cl)c3cccnc23)C1 (stereo partly drawn) [Example 77, N-((3S)-1-{5-Chloro-7-[1-(9H-purin-6-ylamino)ethyl]quinolin-8-yl}pyrrolidin-3-yl)propanamide tris(trifluoroacetate)]
250 to 500 nM | CC(Nc1ncnc2[nH]cnc12)c1cc(Cl)c2cccnc2c1N1CCC(c2ccccc2)C1 (stereo not shown) [Example 76, N-{1-[5-Chloro-8-(3-phenylpyrrolidin-1-yl)quinolin-7-yl]ethyl}-9H-purin-6-amine tris(trifluoroacetate)]

The remaining lines, values behind:

SMILES | IC50
CC(Nc1nc(N)nc2[nH]cnc12)c1ccc2ccccc2c1-c1cccc(F)c1 (stereo not shown) [Example 4, N(6)-{1-[1-(3-fluorophenyl)-2-napthyl]ethyl}-9H-purine-2,6-diamine] | 500 to 1000 nM
CC(Nc1ncnc2[nH]cnc12)c1ccc2cccnc2c1-c1ccccc1F (stereo not shown) [Example 7, N-{1-[8-(2-fluorophenyl)quinolin-7-yl]ethyl}-9H-purin-6-amine bis-trifluoroacetate] | 500 to 1000 nM
